Data from patent US8217066B2, “Compounds as lysophosphatidic acid receptor antagonists” (Amira Pharmaceuticals, Inc., priority 2009, dated 2012).

Biological target: T1, human LPA1 (Homo sapiens, UniProt Q92633)
T1 construct: the full-length cDNA for human LPA1 was obtained by PCR of the reverse transcription reaction; expressed in transfected cells
Experiment: LPA1 calcium flux assay (HLPA1 Ca Flux)
Type: cell-based
Conditions: CHO cells stably expressing human LPA1, stimulated with 10 nM LPA
Experimental: A 1.1 kb cDNA encoding the human LPA1 receptor was cloned from human lung. Human lung RNA (Clontech Laboratories, Inc. USA) was reverse transcribed using the RETROscript kit (Ambion, Inc.) and the full-length cDNA for human LPA1 was obtained by PCR of the reverse transcription reaction. The nucleotide sequence of the cloned human LPA1 was determined by sequencing and confirmed to be identical to the published human LPA1 sequence (An et al. Biochem. Biophys. Res. Commun. 231:619 (1997). The cDNA was cloned into the pcDNA5/FRT expression plasmid and transfected in CHO cells using lipofectamine 2000 (Invitrogen Corp., USA). Clones stably expressing human LPA1 were selected using hygromycin and identified as cells that show Ca-influx in response to LPA.
Human LPA1 or LPA3 expressing CHO cells are seeded at 20,000-45,000 cells per well in a 96-well poly-D-lysine coated plate one or two days before the assay. Prior to the assay, the cells are washed once with PBS and then cultured in serum-free media overnight. On the day of the assay, a calcium indicator dye (Calcium 4, Molecular Devices) in assay buffer (HBSS with Ca^2+ and Mg^2+ and containing 20 mM Hepes and 0.3% fatty-acid free human serum albumin) is added to each well and incubation continued for 1 hour at 37° C. […] of test compounds in 2.5% DMSO are added to the cells and incubation continued at room temperature for 30 minutes. Cells are the stimulated by the addition of 10 nM LPA and intracellular Ca^2+ measured using the Flexstation 3 (Molecular Devices). IC50s are determined using Graphpad prism analysis of drug titration curves.

T1 sequence (Q92633 whole entry): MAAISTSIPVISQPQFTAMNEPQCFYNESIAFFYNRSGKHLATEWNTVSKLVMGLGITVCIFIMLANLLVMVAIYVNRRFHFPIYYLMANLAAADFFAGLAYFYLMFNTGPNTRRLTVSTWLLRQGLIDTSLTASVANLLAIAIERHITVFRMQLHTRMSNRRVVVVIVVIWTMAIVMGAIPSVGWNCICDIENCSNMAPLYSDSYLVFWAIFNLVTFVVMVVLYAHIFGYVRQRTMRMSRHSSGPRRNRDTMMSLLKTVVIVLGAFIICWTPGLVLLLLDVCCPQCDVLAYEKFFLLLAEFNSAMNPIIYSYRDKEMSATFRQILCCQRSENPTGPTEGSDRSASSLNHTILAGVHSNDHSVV

| SMILES | IC50 |
| --- | --- |
| Cc1noc(-c2ccc(-c3ccc(C4(C(=O)O)CC4)cc3)cc2)c1C(O)C(C)(C)CCc1ccccc1 (stereo not shown) [Compound 45, 1-{4′-[4-(1-Hydroxy-2,2-dimethyl-4-phenyl-butyl)-3-methyl-isoxazol-5-yl]-biphenyl-4-yl}-cyclopropanecarboxylic acid] | < 300 nM |
| Cc1noc(-c2ccc(-c3ccc(C4(C(=O)NS(C)(=O)=O)CC4)cc3)cc2)c1CC(F)(F)CCc1ccccc1 [Compound 75, N-(1-{4′-[4-(2,2-Difluoro-4-phenyl-butyl)-3-methyl-isoxazol-5-yl]-biphenyl-4-yl}-cyclopropanecarbonyl)-methanesulfonamide] | < 300 nM |
| Cc1noc(-c2ccc(-c3ccc(C4(C(=O)O)CC4)cc3)cc2)c1NCCCc1ccccc1 [Compound 2, 1-{4′-[3-Methyl-4-(3-phenyl-propylamino)-isoxazol-5-yl]-biphenyl-4-yl}-cyclopropanecarboxylic acid] | < 300 nM |
| Cc1noc(-c2ccc(-c3ccc(C4(C(=O)O)CC4)cc3)cc2)c1CCOCc1ccccc1Cl [Compound 15, 1-(4′-{4-[2-(2-Chloro-benzyloxy)-ethyl]-3-methyl-isoxazol-5-yl}-biphenyl-4-yl)-cyclopropanecarboxylic acid] | < 300 nM |
| Cc1noc(-c2ccc(-c3ccc(C4(C(=O)O)CC4)cc3)cc2)c1C(O)CNCc1ccccc1 (stereo not shown) [Compound 29, 1-{4′-[4-(2-Benzylamino-1-hydroxy-ethyl)-3-methyl-isoxazol-5-yl]-biphenyl-4-yl}-cyclopropanecarboxylic acid] | < 300 nM |
| Cc1noc(-c2ccc(-c3ccc(C4(C(=O)O)CC4)cc3)cc2)c1C(O)CCCc1cccc(C(F)(F)F)c1 (stereo not shown) [Compound 36, 1-(4′-{4-[1-Hydroxy-4-(3-trifluoromethyl-phenyl)-butyl]-3-methyl-isoxazol-5-yl}-biphenyl-4-yl)-cyclopropanecarboxylic acid] | < 300 nM |
| Cc1noc(-c2ccc(-c3ccc(C4(C(=O)NS(C)(=O)=O)CC4)cc3)cc2)c1C(O)COCCc1ccccc1 (stereo not shown) [Compound 74, N-(1-{4′-[4-(1-Hydroxy-2-phenethyloxy-ethyl)-3-methyl-isoxazol-5-yl]-biphenyl-4-yl}-cyclopropanecarbonyl)-methanesulfonamide] | < 300 nM |
| Cc1noc(-c2ccc(-c3ccc(C4(C(=O)O)CC4)cc3)cc2)c1C(O)CCCc1ccccc1C(F)(F)F (stereo not shown) [Compound 40, 1-(4′-{4-[1-Hydroxy-4-(2-trifluoromethyl-phenyl)-butyl]-3-methyl-isoxazol-5-yl}-biphenyl-4-yl)-cyclopropanecarboxylic acid] | < 300 nM |
| Cc1noc(-c2ccc(-c3ccc(C4(C(=O)O)CC4)cc3)cc2)c1CNCC(C)c1ccccc1 (stereo not shown) [Compound 13, 1-(4′-{3-Methyl-4-[(2-phenyl-propylamino)-methyl]-isoxazol-5-yl}-biphenyl-4-yl)-cyclopropanecarboxylic acid] | < 300 nM |
| Cc1cccc(CCCC(O)c2c(C)noc2-c2ccc(-c3ccc(C4(C(=O)O)CC4)cc3)cc2)c1 (stereo not shown) [Compound 37, 1-{4′-[4-(1-Hydroxy-4-m-tolyl-butyl)-3-methyl-isoxazol-5-yl]-biphenyl-4-yl}-cyclopropanecarboxylic acid] | < 300 nM |
| Cc1noc(-c2ccc(-c3ccc(C4(C(=O)O)CC4)cc3)cc2)c1C(C)(O)CCCc1ccccc1 (stereo not shown) [Compound 26, 1-{4′-[4-(1-Hydroxy-1-methyl-4-phenyl-butyl)-3-methyl-isoxazol-5-yl]-biphenyl-4-yl}-cyclopropanecarboxylic acid] | < 300 nM |
| Cc1noc(-c2ccc(-c3ccc(C4(C(=O)O)CC4)cc3)cc2)c1NC(C)CC(C)(C)c1ccccc1 (stereo not shown) [Compound 69, 1-{4′-[4-(1,3-Dimethyl-3-phenyl-butylamino)-3-methyl-isoxazol-5-yl]-biphenyl-4-yl}-cyclopropanecarboxylic acid] | < 300 nM |
| Cc1noc(-c2ccc(-c3ccc(C4(C(=O)O)CC4)cc3)cc2)c1NC(C)CCc1cccc(C(F)(F)F)c1 (stereo not shown) [Compound 31, 1-(4′-{3-Methyl-4-[1-methyl-3-(3-trifluoromethyl-phenyl)-propylamino]-isoxazol-5-yl}-biphenyl-4-yl)-cyclopropanecarboxylic acid] | < 300 nM |
